Test results published in ChEMBL document CHEMBL1201862, “PubChem BioAssay data set” (2004).
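All cell lines were grown in 96-well plates and treated with compound for 48 hours. GI50 marks 50% less growth.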 Active and inactive are the calls of the source. Rule as the data show it: active = GI50 up to about 1.1 µM and inactive = higher.

What was measured:
Assay in all cases: inhibition of tumour cell growth, NCI panel, 48 h
[1] = tested on: SN12C
[2] = tested on: LOX IMVI
[3] = tested on: RPMI-8226
[4] = tested on: KM12
[5] = tested on: OVCAR-4
[6] = tested on: SK-MEL-5
[7] = tested on: CCRF-CEM
[8] = tested on: SF-539
[9] = tested on: IGROV-1
[10] = tested on: SF-295
[11] = tested on: HOP-92
[12] = tested on: A498
[13] = tested on: LXFL 529
[14] = tested on: COLO 205
[15] = tested on: SK-OV-3

Measured: GI50

CC(C)=C1CCC(CN2CCCC2)C1=O (centres undefined)
inactive: [1] 17.6 µM | [2] > 100 µM | [3] 11.8 µM | [4] 30.2 µM | [5] 17.1 µM | [6] > 100 µM | [7] 17.7 µM | [8] 53.7 µM | [9] 75.2 µM | [10] > 100 µM | [11] 24.6 µM | [12] > 100 µM | [13] 18 µM

CC1=C(C(=O)Nc2ccccc2C)C(/C=C/c2ccccc2)C(C(=O)Nc2ccccc2C)=C(C)N1
inactive: [14] > 100 µM | [1] > 100 µM | [2] 74.8 µM | [4] > 100 µM | [15] > 100 µM | [5] 96.4 µM | [6] > 100 µM | [7] 82.6 µM | [8] > 100 µM | [9] > 100 µM | [10] > 100 µM | [11] 80 µM | [12] 37.8 µM | [13] > 100 µM

C[C@H](C(=O)C12CC3CC(CC(C3)C1)C2)[C@H](O)c1ccccc1
inactive: [14] 15 µM | [1] 19.5 µM | [2] 17.5 µM | [3] 36 µM | [4] 25.5 µM | [15] 83.9 µM | [5] 44 µM | [6] 17.6 µM | [7] 32.5 µM | [8] 33.3 µM | [9] 40 µM | [10] 31.9 µM | [11] 21.9 µM | [13] 43.8 µM

CCOC(=O)C1S/C(=N\c2ccc(OC)c(OC)c2)N=C1C (centres undefined)
inactive: [14] 69.3 µM | [1] 44.1 µM | [2] 32.5 µM | [4] 31.3 µM | [15] 62.7 µM | [5] 40.2 µM | [6] 18.4 µM | [7] 22.1 µM | [8] 53.2 µM | [9] 56.6 µM | [10] 36.5 µM | [11] 37.2 µM | [12] 52.7 µM | [13] 33.3 µM

CC[P+](C)(C)CC
inactive: [14] > 100 µM | [1] > 100 µM | [2] > 100 µM | [3] > 100 µM | [4] > 100 µM | [15] > 100 µM | [5] > 100 µM | [6] > 100 µM | [7] > 100 µM | [8] > 100 µM | [9] > 100 µM | [10] > 100 µM | [11] > 100 µM | [13] > 100 µM

O=C1Nc2ccccc2C12CCCC2
inactive: [14] > 100 µM | [1] > 100 µM | [3] > 100 µM | [4] > 100 µM | [15] > 100 µM | [5] > 100 µM | [6] > 100 µM | [7] > 100 µM | [8] 4.24 µM | [9] > 100 µM | [10] > 100 µM | [12] > 100 µM | [13] > 100 µM

COc1c(C)c2c(c(C)c1Cl)Oc1c(C=O)c(O)c(Cl)c(C)c1C(=O)O2
inactive: [14] 22.8 µM | [1] 33.3 µM | [2] 25.9 µM | [3] 32.6 µM | [4] 31.8 µM | [15] 33.2 µM | [6] 95.7 µM | [7] 20.3 µM | [8] 18.5 µM | [9] 31.6 µM | [10] 30.9 µM | [12] 24.2 µM | [13] 28.1 µM

Cn1c2c(c3ccccc31)CCN(CCCCN1CCc3c(n(C)c4ccccc34)C1=O)C2
inactive: [14] > 100 µM | [1] > 100 µM | [3] > 100 µM | [15] 92.7 µM | [5] 36.7 µM | [6] > 100 µM | [7] > 100 µM | [8] 47.5 µM | [9] > 100 µM | [10] > 100 µM | [11] > 100 µM | [12] > 100 µM | [13] > 100 µM

CC(=O)Nc1ccc(-c2nnc(SCC(=O)Nc3ccccc3Cl)o2)cc1
inactive: [14] > 100 µM | [1] > 100 µM | [2] > 100 µM | [4] > 100 µM | [15] > 100 µM | [5] > 100 µM | [6] > 100 µM | [7] > 100 µM | [8] > 100 µM | [9] > 100 µM | [10] > 100 µM | [12] > 100 µM | [13] > 100 µM

COc1ccc2nccc(C3OC(=O)N4CCC(=O)CC34)c2c1 (centres undefined)
inactive: [14] > 100 µM | [1] > 100 µM | [2] > 100 µM | [3] > 100 µM | [4] > 100 µM | [5] > 100 µM | [6] > 100 µM | [7] > 100 µM | [8] > 100 µM | [9] > 100 µM | [10] > 100 µM | [11] 67.1 µM | [12] > 100 µM | [13] > 100 µM

CC(=O)O[C@H]1CC[C@@]2(C)C(CC[C@]3(C)C2CC[C@]2(C)Oc4c(C)cc(O)cc4C[C@@H]23)C1(C)C (some centres undefined)
inactive: [14] 14.5 µM | [1] > 10 µM | [2] 8.75 µM | [3] 2.5 µM | [4] 6.71 µM | [15] 7.08 µM | [5] 7.64 µM | [6] 5.87 µM | [7] 3.79 µM | [9] 13.5 µM | [10] 2.17 µM | [11] 6.85 µM | [12] 12.7 µM | [13] 3.65 µM

O=C1/C=C(/c2ccc(O)cc2)[C@@H](OC2OC(CO)C(O)C(O)C2O)Cc2ccc(O)cc2O1.O=C1/C=C(/c2ccc(O)cc2)[C@H](O)Cc2ccc(O[C@@H]3OC(CO)C(O)C(O)C3O)cc2O1 (some centres undefined)
inactive: [14] > 100 µM | [1] > 100 µM | [2] > 100 µM | [3] 25.2 µM | [4] > 100 µM | [15] > 100 µM | [5] > 100 µM | [6] > 100 µM | [8] > 100 µM | [9] > 100 µM | [10] > 100 µM | [12] > 100 µM | [13] > 100 µM

CC(=O)OC1CCn2nnc(COC(=O)NC(C)C)c21 (centres undefined)
inactive: [1] > 100 µM | [3] > 100 µM | [4] > 100 µM | [15] > 100 µM | [5] > 100 µM | [6] > 100 µM | [8] > 100 µM | [9] > 100 µM | [10] > 100 µM | [11] > 100 µM | [13] > 100 µM

C[C@H](NC(=O)n1c2ccccc2c2ccccc21)C(=O)O
inactive: [14] > 100 µM | [1] > 100 µM | [2] > 100 µM | [3] > 100 µM | [4] > 100 µM | [15] > 100 µM | [6] > 100 µM | [7] > 100 µM | [8] > 100 µM | [9] > 100 µM | [10] > 100 µM | [11] > 100 µM | [13] > 100 µM

CCOC(=O)C(=O)Nc1ccccc1C(F)(F)F
inactive: [14] > 100 µM | [1] > 100 µM | [2] > 100 µM | [3] > 100 µM | [4] > 100 µM | [15] > 100 µM | [5] > 100 µM | [8] > 100 µM | [9] > 100 µM | [10] > 100 µM | [11] > 100 µM | [12] > 100 µM | [13] > 100 µM
